≈ marks a conversion by molar mass, not a printed value. Entries after “also recorded” stand apart in the source; their conditions may differ. Read-outs that look alike come from different tables or passages of the source.

The test system of data set [1] is Staphylococcus aureus ATCC 6538P. Put plainly: Antibacterial activity by agar dilution method at pH 7.0. The format is cell-based. Particulars: ATCC6538P. On the technique in general: In agar dilution, organisms are placed on agar that contains the substance at set levels.
Data set [2] has as its system Bacillus subtilis No. 10707. The data set is described as above. Format: cell-based.
The test system of data set [3] is Klebsiella pneumoniae ATCC 10031. Described as above. The format is cell-based.
The test system of data set [4] is Salmonella typhosa ATCC 9992. The description is as above. The format is cell-based. The note with it: Salmonella enterica.
The subject of data set [5] is Escherichia coli ATCC 26. Described as above. Format: cell-based.
Data set [6] can be described thus: LD50 (acute toxicity). Particulars: in vivo.
A short description of data set [7]: Solubility. Particulars: solvents named in the value.

On to `COc1c2c(c(O)c3c4c(c(C)cc13)C1OC3(C(OC)OC)OC1C(O)(O4)C31CO1)C(=O)C(O)CC2OC1CC(C)(O)C(OC(C)=O)C(C)O1` (stereo not shown) [DC-45-A1], for which the MIC is 0.4 mg/L (≈ 0.568 µM) in data set [1] (Staphylococcus aureus, pH 7, read-out: Minimum Inhibitory Concentration); 0.04 mg/L (≈ 0.0568 µM) in data set [2] (Bacillus subtilis, NO.10707, pH 7, read-out: Minimum Inhibitory Concentration); 0.4 mg/L (≈ 0.568 µM) in data set [3] (Klebsiella pneumoniae, ATCC10031, pH 7, read-out: Minimum Inhibitory Concentration); 50 mg/L (≈ 71 µM) in data set [4] (pH 7, read-out: Minimum Inhibitory Concentration); 12 mg/L (≈ 17 µM) in data set [5] (Escherichia coli, ATCC26, pH 7, read-out: Minimum Inhibitory Concentration). Besides, the LD50 in data set [6] (ip) and in data set [6] (iv) was 0.375 mg/kg each time. For the same compound, the Solubility entry in data set [7] is “Soluble in methanol, ethanol, acetone, ethyl acetate and chloroform; also recorded: soluble with difficulty in benzene and aqueous ether; also recorded: insoluble in n-hexane”.
With `COc1c2c(c(O)c3c4c(c(C)cc13)C1OC3(C(OC)OC)OC1C(O)(O4)C31CO1)C(=O)C(O)CC2O` (stereo not shown) [DC-45-A2], the MIC worked out at 100 mg/L (≈ 193 µM) in data set [1] (Staphylococcus aureus ATCC 6538P, agar dilution, pH 7.0, read-out: Minimum Inhibitory Concentration); 100 mg/L (≈ 193 µM) in data set [2] (Bacillus subtilis No. 10707, agar dilution, pH 7.0, read-out: Minimum Inhibitory Concentration); 12 mg/L (≈ 23.1 µM) in data set [3] (ATCC10031, Klebsiella pneumoniae ATCC 10031, agar dilution, pH 7.0, read-out: Minimum Inhibitory Concentration); 50 mg/L (≈ 96.4 µM) in data set [4] (Salmonella typhosa ATCC 9992, agar dilution, pH 7.0, read-out: Minimum Inhibitory Concentration); 25 mg/L (≈ 48.2 µM) in data set [5] (ATCC26, Escherichia coli ATCC 26, agar dilution, pH 7.0, read-out: Minimum Inhibitory Concentration). In addition, the LD50 in data set [6] (ip) turned out to be 5.8 mg/kg; in data set [6] (iv) it was 14 mg/kg. Moreover, the Solubility entry in data set [7] was “Soluble in methanol, ethanol, acetone, ethyl acetate and chloroform; also recorded: soluble with difficulty in benzene, ether and water; also recorded: insoluble in n-hexane”.

As usually defined, the LD50 is the dose at which mortality reaches 50%.

For the origin of these results see patent US4459291A, “Compounds having antibiotic activity, processes for their preparation, pharmaceutical compositions containing them and their use as medicaments” (priority 1981, dated 1984).
